Usually inhibition stands for the change of the read-out against control, counted positive when it falls.

In test [1] the test system is SW620. The experiment in a line: CCK-8 proliferation, SW620. The test is classed as cell-based. Particulars: Homo sapiens, SW-620; CCK-8; 96 hours; read-out: Inhibitory activity (IC50) on tumor cell proliferation, SW620. Put shortly:
(§1)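 Tumor cells were cultured at 37°C with 5% CO2, seeded, and after 24h treated with compounds at 10 concentrations starting at 10µM (5-fold serial dilutions).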

Test [2] relates to TMD8. Put plainly: CCK-8 proliferation, TMD8. The test is classed as cell-based. The note with it: Homo sapiens, TMD8; CCK-8; 72 hours; read-out: Inhibitory activity (IC50) on tumor cell proliferation, TMD8. On the procedure: (§2) The tumor cells used herein were cultured in a cell culture medium listed in table A1 at 37°C in an incubator with 5% CO2. Prior to experimentation, all cell lines used were correctly identified by STR profiling, and tested negative for mycoplasma contamination using a mycoplasma detection kit through routine screenings. Table A1. Tumor cells and cell culture medium used in the present disclosure
(§3) IC50 values of the compounds of the present disclosure (including the compounds in Table 1, and compounds of examples) were measured using the Meilun Cell Counting Kit-8 kit from Dalian Meilun Biotech Co., Ltd. Assay details are as follows: tumor cells were seeded in a 96-well plate at a density listed in Table A2. After 24h, 100 µL of the inoculated cells were treated with 0.5µL of the compounds of the present disclosure (including the compounds in Tables 1 and 2, and compounds of examples) at 10 different successively decreasing concentrations (starting at the highest concentration of 10µM; 5-fold serial dilutions). After the cells were treated with the compounds of the present disclosure for a period of time, the cell viability detection reagent was added to the culture medium for cell viability assessment according to the instructions provided with the CCK-8 kit. […] The growth inhibition of the compounds of the present disclosure on cells was plotted by Prism Graphpad software, and the IC50 values of the compounds of the present disclosure were calculated therefrom. […] Seeding protocol and treatment time for tumor cells

The test system of test [3] is THP-1. The experiment in a line: CCK-8 proliferation, THP-1. It counts as cell-based. The note with it: Homo sapiens, 72 hours, read-out: Inhibitory activity (IC50) on tumor cell proliferation, THP-1. On the procedure: as §2, §3
Test [4] deals with CCRF-CEM. The experiment in a line: CCK-8 proliferation, CCRF-CEM. It counts as cell-based, Human. Particulars: Homo sapiens, CCRF-CEM; CCK-8; 96 hours; read-out: Inhibitory activity (IC50) on tumor cell proliferation, CCRF-CEM. An outline of the steps:
as §1

For test [5], the system named is Jurkat. The experiment in a line: CCK-8 proliferation, Jurkat. The test is classed as cell-based, Human. Particulars: Homo sapiens, Jurkat; CCK-8; 96 hours; read-out: Inhibitory activity (IC50) on tumor cell proliferation, Jurkat. An outline of the steps: as §1
Test [6] deals with LNcap. The experiment in a line: CCK-8 proliferation, LNcap. The test is classed as cell-based. Particulars: Homo sapiens, LNCaP; CCK-8; 96 hours; read-out: Inhibitory activity (IC50) on tumor cell proliferation, Lncap. The protocol: as §2, §3
The subject of test [7] is LS174T. The experiment in a line: CCK-8 proliferation, LS174T. It counts as cell-based. The note with it: Homo sapiens, read-out: Inhibitory activity (IC50) on tumor cell proliferation, LS174T. On the procedure: IC50 values of the compounds of the present disclosure (including the compounds in Table 1, and compounds of examples) were measured using the Meilun Cell Counting Kit-8 kit from Dalian Meilun Biotech Co., Ltd. Assay details are as follows: tumor cells were seeded in a 96-well plate at a density listed in Table A2. After 24h, 100 µL of the inoculated cells were treated with 0.5µL of the compounds of the present disclosure (including the compounds in Tables 1 and 2, and compounds of examples) at 10 different successively decreasing concentrations (starting at the highest concentration of 10µM; 5-fold serial dilutions). After the cells were treated with the compounds of the present disclosure for a period of time, the cell viability detection reagent was added to the culture medium for cell viability assessment according to the instructions provided with the CCK-8 kit. […] The growth inhibition of the compounds of the present disclosure on cells was plotted by Prism Graphpad software, and the IC50 values of the compounds of the present disclosure were calculated therefrom. [drawing 1519] Table A2. Seeding protocol and treatment time for tumor cells

The subject of test [8] is H1975. Put plainly: CCK-8 proliferation, NCI-H1975 (H1975). It counts as cell-based, Human. Particulars: Homo sapiens, NCI-H1975; CCK-8; 96 hours; read-out: Inhibitory activity (IC50) on tumor cell proliferation, H1975. An outline of the steps: as §1
Test [9] relates to MM.1R. Put plainly: CCK-8 proliferation, MM.1R. The test is classed as cell-based. The note with it: CCK-8, 72 hours, read-out: Inhibitory activity (IC50) on tumor cell proliferation, MM.1R. An outline of the steps:
as §1

Test [10] relates to MV-4-11. Put plainly: CCK-8 proliferation, MV-4-11. The test is classed as cell-based, Human. Particulars: Homo sapiens, MV4-11; CCK-8; 72 or 96 hours; read-out: Inhibitory activity (IC50) on tumor cell proliferation, MV-4-11. An outline of the steps: as §1
In test [11] the test system is SR. The experiment in a line: CCK-8 proliferation, SR. It counts as cell-based, Human. Particulars: Homo sapiens, SR; CCK-8; 72 hours; read-out: Inhibitory activity (IC50) on tumor cell proliferation, SR. Put shortly: as §1
Test [12] deals with CAL-62. The experiment in a line: CCK-8 proliferation, CAL-62. The test is classed as cell-based. Particulars: Homo sapiens, 72 hours, read-out: Inhibitory activity (IC50) on tumor cell proliferation, CAL-62. On the procedure: as §2, §3
The target of test [13] is T1, FAK (Homo sapiens, UniProt Q05397).
T1 construct: evaluate the effects of the compounds of the present disclosure on the expression of target proteins in cells; endogenous in cells
The experiment in a line: Western blot degradation of FAK. The note with it: Table D7. The test is classed as cell-based. Put shortly: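 After compound exposure, cells were harvested and lysates run on SDS-PAGE, transferred to nitrocellulose and probed with antibodies. Remaining target (%) was computed from band grayscale relative to an internal control protein and normalised; degradation (%) was 100% minus that.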
For orientation: Immunoblotting shows a protein as a band on a membrane.

Test [14] has as its target T2, human Cereblon WT GST-tagged protein (Homo sapiens, UniProt Q96SW2).
T2 construct: purchased CISBIO 64BDCRBNPEH
Put plainly: CRBN binding, HTRF (CEREBLON BINDING kit). The note with it: Table II-2, CRBN binding screening, HTRF; for inhibition at 0.5 µM: read-out: Inhibition rate (%) at 0.5µM; for inhibition at 2 µM: read-out: Inhibition rate (%) at 2 µM. An outline of the steps: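 After 3 h at room temperature, emission at 665 and 620 nm was measured in a homogeneous time-resolved fluorescence format. Compounds competed with a Thalidomide-Re probe for GST-tagged wild-type human CRBN, which was labelled with a Eu anti-GST antibody.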
For orientation: TR-FRET usually uses a lanthanide donor and a delayed reading to cut background.

Test [15] relates to BXPC-3. Put plainly: CCK-8 proliferation, BXPC-3. It counts as cell-based. The note with it: Homo sapiens, 96 hours, read-out: Inhibitory activity (IC50) on tumor cell proliferation, BXPC-3. The protocol:
as §2, §3

T1 sequence (Q05397 whole entry, species assumed): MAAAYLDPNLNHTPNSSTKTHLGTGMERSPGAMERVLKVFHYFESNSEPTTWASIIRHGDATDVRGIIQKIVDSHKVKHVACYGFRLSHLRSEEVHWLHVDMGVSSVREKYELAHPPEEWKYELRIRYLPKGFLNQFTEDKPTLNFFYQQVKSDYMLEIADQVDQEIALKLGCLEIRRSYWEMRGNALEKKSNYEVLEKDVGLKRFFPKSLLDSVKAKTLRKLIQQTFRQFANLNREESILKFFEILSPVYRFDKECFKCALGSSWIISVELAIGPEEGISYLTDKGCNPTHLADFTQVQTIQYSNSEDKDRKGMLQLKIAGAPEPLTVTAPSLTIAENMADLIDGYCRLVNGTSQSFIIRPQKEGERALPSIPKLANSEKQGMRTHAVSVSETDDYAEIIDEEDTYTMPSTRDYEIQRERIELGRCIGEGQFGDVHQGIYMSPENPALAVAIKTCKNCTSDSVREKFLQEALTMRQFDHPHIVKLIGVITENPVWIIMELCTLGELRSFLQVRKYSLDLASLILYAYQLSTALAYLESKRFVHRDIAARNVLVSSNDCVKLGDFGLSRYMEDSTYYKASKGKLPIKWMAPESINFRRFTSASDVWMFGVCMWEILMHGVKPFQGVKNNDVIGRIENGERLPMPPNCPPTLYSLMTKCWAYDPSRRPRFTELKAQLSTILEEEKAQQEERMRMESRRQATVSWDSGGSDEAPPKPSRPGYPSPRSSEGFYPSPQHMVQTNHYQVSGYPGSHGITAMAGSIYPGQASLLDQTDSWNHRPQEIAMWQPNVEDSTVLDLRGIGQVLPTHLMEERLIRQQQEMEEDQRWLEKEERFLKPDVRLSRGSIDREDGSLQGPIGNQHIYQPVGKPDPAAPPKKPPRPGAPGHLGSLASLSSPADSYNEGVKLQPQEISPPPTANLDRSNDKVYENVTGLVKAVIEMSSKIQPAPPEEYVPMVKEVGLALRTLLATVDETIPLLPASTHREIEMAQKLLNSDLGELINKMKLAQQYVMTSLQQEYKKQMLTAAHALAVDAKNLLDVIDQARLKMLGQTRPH
T2 sequence (Q96SW2 whole entry): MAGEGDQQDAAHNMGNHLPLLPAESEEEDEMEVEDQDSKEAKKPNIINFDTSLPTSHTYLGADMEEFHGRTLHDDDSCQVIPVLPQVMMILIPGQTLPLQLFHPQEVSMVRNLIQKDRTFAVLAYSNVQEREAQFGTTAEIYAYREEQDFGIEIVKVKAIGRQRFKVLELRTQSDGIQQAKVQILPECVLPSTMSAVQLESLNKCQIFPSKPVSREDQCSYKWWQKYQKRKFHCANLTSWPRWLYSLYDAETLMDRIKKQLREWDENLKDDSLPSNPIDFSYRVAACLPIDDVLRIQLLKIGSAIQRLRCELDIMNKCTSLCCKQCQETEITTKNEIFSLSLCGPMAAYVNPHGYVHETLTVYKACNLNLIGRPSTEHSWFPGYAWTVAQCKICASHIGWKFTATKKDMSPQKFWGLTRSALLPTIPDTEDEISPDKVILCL

Regarding `CC1(C)CCC(CN2CCN(c3ccc(C(=O)NS(=O)(=O)c4ccc(NCC5CCOCC5)c([N+](=O)[O-])c4)c(Oc4cnc5[nH]ccc5c4)c3)CC2)=C(c2ccc(Cl)cc2)C1` [ABT-199, Venetoclax, reference compound], the IC50 is above 10000 nM in test [1]; 1000 to 5000 nM in test [2]; 500 to 1000 nM in test [3]; 1000 to 5000 nM in test [4]; 1000 to 5000 nM in [5]; above 10000 nM in [6]. Further, the IC50 in test [7] is above 10000 nM.

As to `CC1(C)CCC(c2ccc(Cl)cc2)=C(CN2CCN(c3ccc(C(=O)NS(=O)(=O)c4ccc(N[C@H](CCN5CCOCC5)CSc5ccccc5)c(S(=O)(=O)C(F)(F)F)c4)cc3)CC2)C1` [ABT-263, Navitoclax, reference compound], the IC50 in [1] lay within 500 to 1000 nM; in test [2], 1000 to 5000 nM; in test [3] it was 100 to 500 nM; in test [4] it was 100 to 500 nM; in [5], 100 to 500 nM; in test [6] it was 1000 to 5000 nM. Further, the IC50 in test [7] was 500 to 1000 nM.

As to `CNC(=O)c1ccc(Nc2ncc(C(F)(F)F)c(NCc3nccnc3N(C)S(C)(=O)=O)n2)cc1` [Defactinib, reference compound], the IC50 was 1000 to 5000 nM in test [8]; 1000 to 5000 nM in [9]; 1000 to 5000 nM in [1]; 50 to 100 nM in [10]; 500 to 1000 nM in test [11]; 1000 to 5000 nM in test [4]. Further, the values for the IC50 in test [5] and in [12] were 1000 to 5000 nM and 5000 to 10000 nM, respectively.

In the case of `CNC(=O)c1ccccc1Nc1cc(Nc2ccc(N3CCC(N4CCN(Cc5ccc(C6CCC(=O)NC6=O)c(F)c5)CC4)CC3)cc2OC)ncc1C(F)(F)F` (stereo not shown) [GT-03600, 2-((2-((4-(4-(4-(4-(2,6-dioxopiperidin-3-yl)-3-fluorobenzyl)piperazin-1-yl)piperidin-1-yl)-2-methoxyphenyl)amino)-5-(trifluoromethyl)pyridin-4-yl)amino)-N-methylbenzamide], the IC50 in [8] was in the range of 500 to 1000 nM; in test [9] it was 500 to 1000 nM; in test [1] it was 50 to 100 nM; in [11] it was 50 to 100 nM; in [4], 500 to 1000 nM; in test [12], 100 to 500 nM. Also, the “Degradation of substrate protein FAK (substrate protein remaining %)” value (“Degradation … (substrate protein remaining %)” below) in [13] is listed as “A (A is defined as 0% ≤ substrate protein remaining % ≤ 80%)”.

For `CNC(=O)c1ccccc1Nc1cc(Nc2ccc(N3CCC(N(C)Cc4ccc(C5CCC(=O)NC5=O)cc4)CC3)cc2OC)ncc1C(F)(F)F` (stereo not shown) [GT-03733, 2-((2-((4-(4-((4-(2,6-dioxopiperidin-3-yl)benzyl)(methyl)amino)piperidin-1-yl)-2-methoxyphenyl)amino)-5-(trifluoromethyl)pyridin-4-yl)amino)-N-methylbenzamide], the IC50 fell in the range of 100 to 500 nM in [8]; 500 to 1000 nM in [9]; 100 to 500 nM in test [1]; 100 to 500 nM in test [10]; 50 to 100 nM in [11]; 100 to 500 nM in [4]. For the same compound, the IC50 in test [12] lay in the range of 50 to 100 nM. Moreover, in test [14], the inhibition at 0.5 µM lay within 30 to 40%. Further, in test [14], the inhibition at 2 µM fell in the range of 40 to 53%. Also, the “Degradation … (substrate protein remaining %)” value in test [13] is reported as “A (A is defined as 0% ≤ substrate protein remaining % ≤ 80%)”.

Consider `CNC(=O)c1ccccc1Nc1cc(Nc2ccc(N3CCC(N(C)Cc4ccc(C5CCC(=O)NC5=O)c(F)c4)CC3)cc2OC)ncc1C(F)(F)F` (stereo not shown) [GT-03734, 2-((2-((4-(4-((4-(2,6-dioxopiperidin-3-yl)-3-fluorobenzyl)(methyl)amino)piperidin-1-yl)-2-methoxyphenyl)amino)-5-(trifluoromethyl)pyridin-4-yl)amino)-N-methylbenzamide], for which the IC50 in test [8] was in the range of 100 to 500 nM; in [1], 100 to 500 nM; in test [10] it was 100 to 500 nM; in test [11], 50 to 100 nM; in test [4], 100 to 500 nM; in test [12] it was 50 to 100 nM. Besides, the “Degradation … (substrate protein remaining %)” value in [13] is given as “A (A is defined as 0% ≤ substrate protein remaining % ≤ 80%)”.

Consider `CNC(=O)c1ccccc1Nc1cc(Nc2cc(C)c(N3CCC(N(C)Cc4ccc(C5CCC(=O)NC5=O)cc4)CC3)cc2OC(C)C)ncc1C(F)(F)F` (stereo not shown) [GT-04094, 2-((2-((4-(4-((4-(2,6-dioxopiperidin-3-yl)benzyl)(methyl)amino)piperidin-1-yl)-2-isopropoxy-5-methylphenyl)amino)-5-(trifluoromethyl)pyridin-4-yl)amino)-N-methylbenzamide], for which the IC50 is 100 to 500 nM in [1], 500 to 1000 nM in test [4] and 500 to 1000 nM in [12]. Moreover, the inhibition at 0.5 µM in test [14] is 10 to 20%. Further, the inhibition at 2 µM in test [14] is 53 to 60%. Also, in [13], the “Degradation … (substrate protein remaining %)” value is reported as “A (A is defined as 0% ≤ substrate protein remaining % ≤ 80%)”.

Consider `Cc1ccc(-c2c(C)noc2C)cc1N(CC1CCN(Cc2cccc(NC3CCC(=O)NC3=O)c2)CC1)c1ccc(C2(C#N)CC2)cc1` (stereo not shown) [GT-04841, 1-(4-((5-(3,5-dimethylisoxazol-4-yl)-2-methylphenyl)((1-(3-((2,6-dioxopiperidin-3-yl)amino)benzyl)piperidin-4-yl)methyl)amino)phenyl)cyclopropane-1-carbonitrile], for which the IC50 in test [15] was 100 to 500 nM; in test [3], 500 to 1000 nM.

Turning to `Cc1ccc(-c2c(C)noc2C)cc1N(CC1CCN(Cc2cccc(N3CCC(=O)NC3=O)c2)CC1)c1ccc(C2(C#N)CC2)cc1` [GT-04842, 1-(4-((5-(3,5-dimethylisoxazol-4-yl)-2-methylphenyl)((1-(3-(2,4-dioxotetrahydropyrimidin-1(2H)-yl)benzyl)piperidin-4-yl)methyl)amino)phenyl)cyclopropane-1-carbonitrile], the IC50 in test [15] and in test [3] was 500 to 1000 nM in each case.

Take `CNC(=O)c1ccccc1Nc1cc(Nc2ccc(N3CCOCC3)cc2OC)ncc1C(F)(F)F` [PND-1186, reference compound]: the IC50 in [9] lay in the range of 500 to 1000 nM; in [10], 100 to 500 nM; in [4] it was 1000 to 5000 nM; in [5], 1000 to 5000 nM; in test [12] it was 1000 to 5000 nM.

Values taken from patent EP4678638A1, “NEW E3 UBIQUITIN LIGASE LIGAND, PROTEIN DEGRADATION AGENT AND USE THEREOF” (priority 2023, dated 2024).
